Reference: ChEMBL document CHEMBL1777732 (Bioorg Med Chem Lett, 2011)
The source made the active and inactive calls. The calls are words filed in the database; no cut-off is given here.

What was measured:
[1] = molecular target: T1, Metabotropic glutamate receptor 5 (Homo sapiens, UniProt P41594); assay: Positive allosteric modulation of human mGluR5 expressed in HEK293 cells assessed as increase of L-glutamate-induced calcium mobilization at 10 uM by FLIPR assay relative to L-glutamate; assay type: functional, cell-based
Target sequence in this assay (P41594 21-1212 limits assumed): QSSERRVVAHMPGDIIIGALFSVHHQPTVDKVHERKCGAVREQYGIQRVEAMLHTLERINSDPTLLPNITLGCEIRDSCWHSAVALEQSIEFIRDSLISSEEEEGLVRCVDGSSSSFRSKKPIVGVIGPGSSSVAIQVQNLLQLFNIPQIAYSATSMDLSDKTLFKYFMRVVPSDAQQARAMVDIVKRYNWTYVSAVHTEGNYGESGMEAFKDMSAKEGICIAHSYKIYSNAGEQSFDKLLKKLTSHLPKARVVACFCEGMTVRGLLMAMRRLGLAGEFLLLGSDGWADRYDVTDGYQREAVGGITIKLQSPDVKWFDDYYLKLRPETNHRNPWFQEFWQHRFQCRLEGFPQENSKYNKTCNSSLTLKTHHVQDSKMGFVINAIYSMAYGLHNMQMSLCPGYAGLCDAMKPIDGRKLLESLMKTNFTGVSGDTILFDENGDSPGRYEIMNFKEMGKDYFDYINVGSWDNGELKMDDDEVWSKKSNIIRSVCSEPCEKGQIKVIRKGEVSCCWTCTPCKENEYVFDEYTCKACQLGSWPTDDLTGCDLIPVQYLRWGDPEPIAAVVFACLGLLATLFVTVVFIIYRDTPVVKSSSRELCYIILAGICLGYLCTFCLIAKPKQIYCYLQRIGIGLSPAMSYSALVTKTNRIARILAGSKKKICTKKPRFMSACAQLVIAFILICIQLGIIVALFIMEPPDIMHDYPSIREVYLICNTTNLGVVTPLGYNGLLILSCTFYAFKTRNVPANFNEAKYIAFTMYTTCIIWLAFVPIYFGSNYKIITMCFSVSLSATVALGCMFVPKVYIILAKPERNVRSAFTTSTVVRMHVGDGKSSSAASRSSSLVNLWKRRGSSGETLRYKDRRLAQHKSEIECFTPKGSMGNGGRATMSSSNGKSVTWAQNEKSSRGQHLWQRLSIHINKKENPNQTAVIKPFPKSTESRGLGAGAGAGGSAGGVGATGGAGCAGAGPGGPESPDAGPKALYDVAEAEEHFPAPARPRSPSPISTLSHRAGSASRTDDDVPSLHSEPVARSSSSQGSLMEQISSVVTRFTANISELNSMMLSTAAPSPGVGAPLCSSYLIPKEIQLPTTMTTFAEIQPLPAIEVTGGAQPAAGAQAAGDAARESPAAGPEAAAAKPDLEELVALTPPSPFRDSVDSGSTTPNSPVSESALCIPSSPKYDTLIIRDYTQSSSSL

[2] = molecular target: T1, Metabotropic glutamate receptor 5; assay: Positive allosteric modulation of human mGluR5 expressed in HEK293 cells assessed as increase of L-glutamate-induced calcium mobilization by FLIPR assay; assay type: functional, cell-based
Target sequence in this assay (P41594 whole entry): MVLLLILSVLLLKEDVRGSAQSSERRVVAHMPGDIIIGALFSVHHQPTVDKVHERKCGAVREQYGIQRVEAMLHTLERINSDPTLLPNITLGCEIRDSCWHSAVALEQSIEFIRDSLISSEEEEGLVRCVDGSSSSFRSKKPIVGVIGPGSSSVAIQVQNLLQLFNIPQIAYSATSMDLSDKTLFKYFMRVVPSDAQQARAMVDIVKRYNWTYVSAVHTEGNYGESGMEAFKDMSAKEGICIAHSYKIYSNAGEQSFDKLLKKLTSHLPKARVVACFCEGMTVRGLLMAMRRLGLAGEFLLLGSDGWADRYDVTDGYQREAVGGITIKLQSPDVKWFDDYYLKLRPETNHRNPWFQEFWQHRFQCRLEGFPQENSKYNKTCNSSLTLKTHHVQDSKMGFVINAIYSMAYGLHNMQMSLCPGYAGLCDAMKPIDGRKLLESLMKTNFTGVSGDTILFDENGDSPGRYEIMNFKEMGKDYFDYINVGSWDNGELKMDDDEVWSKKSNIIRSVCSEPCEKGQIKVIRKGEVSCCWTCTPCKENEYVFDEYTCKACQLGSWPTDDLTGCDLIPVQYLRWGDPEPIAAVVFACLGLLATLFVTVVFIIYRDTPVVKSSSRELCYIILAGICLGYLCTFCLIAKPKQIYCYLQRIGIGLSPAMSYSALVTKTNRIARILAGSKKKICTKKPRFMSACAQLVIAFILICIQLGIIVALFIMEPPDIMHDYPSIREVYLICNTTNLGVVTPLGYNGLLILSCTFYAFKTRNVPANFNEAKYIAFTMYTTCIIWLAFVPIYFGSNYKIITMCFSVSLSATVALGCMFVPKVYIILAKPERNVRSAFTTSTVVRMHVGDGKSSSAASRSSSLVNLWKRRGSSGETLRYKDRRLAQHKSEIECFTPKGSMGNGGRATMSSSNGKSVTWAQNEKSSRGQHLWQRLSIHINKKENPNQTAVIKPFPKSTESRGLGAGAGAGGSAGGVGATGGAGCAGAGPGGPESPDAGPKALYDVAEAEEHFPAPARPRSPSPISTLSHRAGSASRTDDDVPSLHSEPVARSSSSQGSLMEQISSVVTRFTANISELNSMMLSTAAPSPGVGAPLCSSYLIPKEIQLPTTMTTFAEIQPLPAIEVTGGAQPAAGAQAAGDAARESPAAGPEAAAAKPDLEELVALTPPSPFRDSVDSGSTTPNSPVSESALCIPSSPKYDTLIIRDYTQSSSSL

[3] = molecular target: T1, Metabotropic glutamate receptor 5; assay: Displacement of [3H]-MPEP from human mGluR5 expressed in HEK293 cells after 2 hrs; assay type: cell-based
Target sequence in this assay (P41594 whole entry): as above

[4] = molecular target: T1, Metabotropic glutamate receptor 5; assay: Negative allosteric modulation of human mGluR5 expressed in HEK293 cells assessed as inhibition of L-glutamate-induced calcium mobilization by FLIPR assay; assay type: functional, cell-based
Target sequence in this assay (P41594 whole entry): as above

[5] = molecular target: T1, Metabotropic glutamate receptor 5; assay: Negative allosteric modulation of human mGluR5 expressed in HEK293 cells assessed as inhibition of L-glutamate-induced calcium mobilization at 10 uM by FLIPR assay relative to control; assay type: functional, cell-based
Target sequence in this assay (P41594 21-1212 limits assumed): as the sequence (P41594 21-1212 limits assumed) above

Emax [1]	EC50 ([2]; read-out: EC50) [nM]	Ki [3] [nM]	IC50 ([4]; read-out: IC50) [nM]	Imax [5]	EC50 ([2]; hek293)	IC50 ([4]; hek293)	SMILES
106%	19	3300					O=C(NC1CCCC1)c1ccc(C#Cc2ccccc2)nc1
25%	462	> 32000					COc1cccc(C#Cc2ccc3c(n2)CCN(C2CCCC2)C3=O)c1
115%	393	> 32000					O=C1c2ccc(C#Cc3ccccc3Cl)nc2CCN1C1CCCC1
		> 32000	776	80%			Cc1ccccc1C#Cc1ccc2c(n1)CCN(C)C2=O
68%	748	> 32000					O=C1c2ccc(C#Cc3cccnc3)nc2CCN1C1CCCC1
61%	62	7100					CC(C)NC(=O)c1ccc(C#Cc2ccccc2)nc1
		23200					COc1cccc(C#Cc2ccc3c(n2)CCN(C2CCCCC2)C3=O)c1
		7600	227	90%			O=C(NC1CCCC1)c1ccc(C#Cc2ccccn2)nc1
122%	40	12400					O=C1c2ccc(C#Cc3ccccc3)nc2CCN1C1CCCCC1
112%	13	720					O=C1c2ccc(C#Cc3cccs3)nc2CCN1C1CCCCC1
54%	36	3210					Cc1cccc(C#Cc2ccc3c(n2)CCN(C2CCCCC2)C3=O)c1
		250	22	84%			CN1CCc2nc(C#Cc3cccc(Cl)c3)ccc2C1=O
47%	171	12000					O=C1c2ccc(C#Cc3cccc(Cl)c3)nc2CCN1C1CCCCC1
97%	4820	> 32000					Cc1ccc(C#Cc2ccc3c(n2)CCN(C2CCCC2)C3=O)cc1
109%	5.9	890					O=C1c2ccc(C#Cc3ccccc3)nc2CCN1C1CCCC1
		2740	27	89%			CC(C)N1CCc2nc(C#Cc3ccccn3)ccc2C1=O
		5680	2520	61%			CC(C)N1CCc2nc(C#Cc3ccccc3Cl)ccc2C1=O
		15000					CNC(=O)c1ccc(C#Cc2ccccc2)nc1
		27100	4230	61%			CC(C)N1CCc2nc(C#Cc3ccc(Cl)cc3)ccc2C1=O
		> 32000	810	76%			Cc1ccccc1C#Cc1ccc2c(n1)CCN(C(C)C)C2=O
inactive		> 32000		inactive	Not Active	Not Active	O=C1c2ccc(C#Cc3ccc(Cl)cc3)nc2CCN1C1CCCCC1
103%	12	2840					O=C1c2ccc(C#Cc3cccs3)nc2CCN1C1CCCC1
		1280	706	60%			CC(C)N1CCc2nc(C#Cc3ccccc3)ccc2C1=O
68%	924	> 32000					O=C1c2ccc(C#Cc3ccccc3Cl)nc2CCN1C1CCCCC1
		6150	352	73%			CN1CCc2nc(C#Cc3ccc(Cl)cc3)ccc2C1=O

Emax [1]	EC50 ([2]; read-out: EC50) [nM]	Ki [3] [nM]	IC50 ([4]; read-out: IC50) [nM]	Imax [5]	EC50 ([2]; hek293)	IC50 ([4]; hek293)	SMILES
		1930	45	78%			CC(C)N1CCc2nc(C#Cc3cccs3)ccc2C1=O
		7450	1400	68%			Cc1ccc(C#Cc2ccc3c(n2)CCN(C)C3=O)cc1
107%	239	18800					Cc1ccccc1C#Cc1ccc2c(n1)CCN(C1CCCC1)C2=O
97%	7.5	670					Cc1cccc(C#Cc2ccc3c(n2)CCN(C2CCCC2)C3=O)c1
		2950	111	88%			COc1cccc(C#Cc2ccc3c(n2)CCN(C(C)C)C3=O)c1
87%	33	5230					O=C1c2ccc(C#Cc3cccc(Cl)c3)nc2CCN1C1CCCC1
		27400			Not Active	Not Active	CN1CCc2nc(C#Cc3cccnc3)ccc2C1=O
		6240	184	92%			CN1CCc2nc(C#Cc3ccccn3)ccc2C1=O
		7900	916	70%			CN1CCc2nc(C#Cc3ccccc3Cl)ccc2C1=O
		19600			Not Active	Not Active	CC(C)N1CCc2nc(C#Cc3cccnc3)ccc2C1=O
		760	30	58%			CN1CCc2nc(C#Cc3ccccc3)ccc2C1=O
		2240	518	74%			O=C1c2ccc(C#Cc3ccccn3)nc2CCN1C1CCCCC1
		100	5.7	86%			CC(C)N1CCc2nc(C#Cc3cccc(Cl)c3)ccc2C1=O
		3660	293	88%			COc1cccc(C#Cc2ccc3c(n2)CCN(C)C3=O)c1
62%	466	> 32000					Cc1ccccc1C#Cc1ccc2c(n1)CCN(C1CCCCC1)C2=O
28%	1010	20200					Cc1ccc(C#Cc2ccc3c(n2)CCN(C(C)C)C3=O)cc1
73%	387	15600					O=C1c2ccc(C#Cc3cccnc3)nc2CCN1C1CCCCC1
		27200					Cc1ccc(C#Cc2ccc3c(n2)CCN(C2CCCCC2)C3=O)cc1
		2170	451	49%			CN1CCc2nc(C#Cc3cccs3)ccc2C1=O
98%	979	> 32000					O=C1c2ccc(C#Cc3ccc(Cl)cc3)nc2CCN1C1CCCC1
		1770	199	80%			O=C1c2ccc(C#Cc3ccccn3)nc2CCN1C1CCCC1
68%	> 10000	> 32000					O=C(NC1CCCC1)c1ccc(C#Cc2cccnc2)nc1
		820	2.9	86%			Cc1cccc(C#Cc2ccc3c(n2)CCN(C)C3=O)c1
		510	4.8	88%			Cc1cccc(C#Cc2ccc3c(n2)CCN(C(C)C)C3=O)c1
